Literature values in patent publication US11439638B1, “Drug and diagnostic combination system to identify and treat single-stranded RNA viruses including coronaviruses” (priority 2021, dated 2022).

How the values were obtained:
[1] = tested on: influenza viruses, arenaviruses, bunyaviruses, and filoviruses
SARS-CoV-2 = conditions: mammalian cells, in vitro

Compound	effectiveness against viruses [1]	inhibition of dengue virus (dengue virus)	inhibition of yellow fever virus (yellow fever virus)	replication of SARS-CoV-2 (SARS-CoV-2)
NC(=O)c1nc(F)cn([C@@H]2O[C@H](COP(=O)(O)OP(=O)(O)OP(=O)(O)O)[C@@H](O)[C@H]2O)c1=O [favipiravir-RTP]	effective	–	–	–
ivermectin	–	inhibit	inhibit	slow replication
NC(=O)c1nc(F)c[nH]c1=O [Favipiravir, favipiravir]	effective	–	–	–
